Experimental data from the NIST ThermoML archive (doi:10.1016/j.jct.2006.10.008).

Legend:
[1] = xn = mol fraction of the nth substance listed; conditions: 298.15 K, 101 kPa, Liquid
[2] = excess molar enthalpy (molar enthalpy of mixing); xn = mol fraction of the nth substance listed; conditions: 298.15 K, 101 kPa, Liquid, Calvet calorimetry

ClCCCCCl [1,4-dichlorobutane] + CCOC=O
Conditions	excess molar enthalpy, [2] [kcal/mol]	mass density, [1] [kg/m3]
x2 = 0.0774	–	1120.56
x2 = 0.083	0.0262	–
x2 = 0.1549	–	1107.96
x2 = 0.1706	0.042	–
x2 = 0.229	–	1095.35
x2 = 0.256	0.0527	–
x2 = 0.2982	–	1083.08
x2 = 0.3368	0.0584	–
x2 = 0.3653	–	1070.71
x2 = 0.4094	0.0582	–
x2 = 0.4302	–	1058.33
x2 = 0.473	0.055	–
x2 = 0.4921	–	1046.05
x2 = 0.5279	0.0505	–
x2 = 0.5517	–	1033.83
x2 = 0.5977	0.0395	–
x2 = 0.6131	–	1020.82
x2 = 0.6452	0.034	–
x2 = 0.6683	–	1008.67
x2 = 0.6966	0.025	–
x2 = 0.7211	–	996.7
x2 = 0.7477	0.0167	–
x2 = 0.7717	–	984.84
x2 = 0.803	0.0108	–
x2 = 0.8212	–	973.13
x2 = 0.8543	0.00633	–
x2 = 0.8674	–	961.66
x2 = 0.907	0.00373	–
x2 = 0.9134	–	949.8
x2 = 0.9569	0.00222	938.37

ClCCCCl [1,3-dichloropropane] + CCCCOC=O
Conditions	excess molar enthalpy [kcal/mol]	mass density [kg/m3]
[1], x2 = 0.0505	–	1161.51
[1], x2 = 0.101	–	1144.56
[1], x2 = 0.1523	–	1127.68
[1], x2 = 0.2044	–	1110.9
[1], x2 = 0.2581	–	1094
[1], x2 = 0.313	–	1077.09
[1], x2 = 0.3693	–	1060.1
[1], x2 = 0.4847	–	1026.45
[1], x2 = 0.5445	–	1009.59
[1], x2 = 0.6675	–	976.01
[1], x2 = 0.7309	–	959.34
[1], x2 = 0.7964	–	942.5
[1], x2 = 0.862	–	925.98
[1], x2 = 0.9296	–	909.27
[2], x2 = 0.0521	-0.00691	–
[2], x2 = 0.1142	-0.0126	–
[2], x2 = 0.1765	-0.0207	–
[2], x2 = 0.2379	-0.0303	–
[2], x2 = 0.2982	-0.0385	–
[2], x2 = 0.3557	-0.049	–
[2], x2 = 0.4108	-0.0593	–
[2], x2 = 0.4602	-0.0664	–
[2], x2 = 0.5057	-0.0712	–
[2], x2 = 0.5508	-0.0716	–
[2], x2 = 0.6114	-0.069	–
[2], x2 = 0.6872	-0.0624	–
[2], x2 = 0.7608	-0.0527	–
[2], x2 = 0.8457	-0.0376	–
[2], x2 = 0.9261	-0.0206	–

CCOC=O [ethyl methanoate] + ClCCCl
Conditions	excess molar enthalpy [kcal/mol]	mass density [kg/m3]
[1], x1 = 0.0571	–	1226.06
[1], x1 = 0.1212	–	1204.8
[1], x1 = 0.1793	–	1185.79
[1], x1 = 0.2317	–	1168.78
[1], x1 = 0.2946	–	1148.35
[1], x1 = 0.355	–	1128.9
[1], x1 = 0.4144	–	1109.76
[1], x1 = 0.465	–	1093.66
[1], x1 = 0.5294	–	1073.24
[1], x1 = 0.5889	–	1054.49
[1], x1 = 0.6485	–	1035.88
[1], x1 = 0.7065	–	1017.61
[1], x1 = 0.7648	–	999.52
[1], x1 = 0.8239	–	981.06
[1], x1 = 0.8823	–	962.96
[1], x1 = 0.9345	–	946.9
[2], x1 = 0.0533	-0.0075	–
[2], x1 = 0.117	-0.0173	–
[2], x1 = 0.1872	-0.0268	–
[2], x1 = 0.2551	-0.0353	–
[2], x1 = 0.3201	-0.0432	–
[2], x1 = 0.3798	-0.05	–
[2], x1 = 0.4359	-0.0549	–
[2], x1 = 0.4835	-0.0584	–
[2], x1 = 0.5094	-0.0598	–
[2], x1 = 0.5591	-0.0598	–
[2], x1 = 0.6134	-0.0574	–
[2], x1 = 0.6735	-0.0546	–
[2], x1 = 0.7374	-0.0485	–
[2], x1 = 0.8	-0.0397	–
[2], x1 = 0.8714	-0.0283	–
[2], x1 = 0.9368	-0.0146	–

CCCOC=O [propyl methanoate] + ClCCCCl
Conditions	excess molar enthalpy [kcal/mol]	mass density [kg/m3]
[1], x1 = 0.0612	–	1161.75
[1], x1 = 0.1204	–	1145.46
[1], x1 = 0.1775	–	1129.76
[1], x1 = 0.2355	–	1113.91
[1], x1 = 0.2944	–	1097.92
[1], x1 = 0.3527	–	1082.1
[1], x1 = 0.4109	–	1066.46
[1], x1 = 0.4695	–	1050.7
[1], x1 = 0.5286	–	1034.93
[1], x1 = 0.5863	–	1019.65
[1], x1 = 0.6459	–	1003.85
[1], x1 = 0.7044	–	988.35
[1], x1 = 0.763	–	972.97
[1], x1 = 0.8214	–	957.74
[1], x1 = 0.8796	–	942.43
[1], x1 = 0.9386	–	927.1
[2], x1 = 0.0618	-0.000717	–
[2], x1 = 0.1342	-0.00406	–
[2], x1 = 0.2092	-0.00951	–
[2], x1 = 0.2838	-0.0162	–
[2], x1 = 0.3515	-0.0231	–
[2], x1 = 0.4148	-0.0297	–
[2], x1 = 0.4714	-0.0358	–
[2], x1 = 0.503	-0.0397	–
[2], x1 = 0.5539	-0.0461	–
[2], x1 = 0.6084	-0.0502	–
[2], x1 = 0.6696	-0.0491	–
[2], x1 = 0.7356	-0.0441	–
[2], x1 = 0.8024	-0.0365	–
[2], x1 = 0.8727	-0.0258	–
[2], x1 = 0.9394	-0.0134	–

ClCCCCl [1,3-dichloropropane] + COC=O
Conditions	excess molar enthalpy [kcal/mol]	mass density [kg/m3]
[1], x2 = 0.0849	–	1165.85
[1], x2 = 0.165	–	1152.81
[1], x2 = 0.244	–	1139.5
[1], x2 = 0.3177	–	1126.33
[1], x2 = 0.386	–	1113.56
[1], x2 = 0.4563	–	1099.9
[1], x2 = 0.5138	–	1088.31
[1], x2 = 0.5789	–	1074.43
[1], x2 = 0.635	–	1062.04
[1], x2 = 0.688	–	1049.82
[1], x2 = 0.7384	–	1037.54
[1], x2 = 0.7876	–	1025.35
[1], x2 = 0.8341	–	1013.43
[1], x2 = 0.878	–	1001.59
[1], x2 = 0.9206	–	989.81
[1], x2 = 0.9607	–	978.24
[2], x2 = 0.0855	0.0211	–
[2], x2 = 0.2024	0.0493	–
[2], x2 = 0.3078	0.0673	–
[2], x2 = 0.4178	0.0803	–
[2], x2 = 0.4624	0.08236	–
[2], x2 = 0.4877	0.0832	–
[2], x2 = 0.5024	0.08372	–
[2], x2 = 0.5476	0.0843	–
[2], x2 = 0.5583	0.08203	–
[2], x2 = 0.5978	0.0807	–
[2], x2 = 0.6499	0.078	–
[2], x2 = 0.7069	0.0738	–
[2], x2 = 0.7674	0.0679	–
[2], x2 = 0.8297	0.0585	–
[2], x2 = 0.893	0.0448	–
[2], x2 = 0.9533	0.0246	–

CCCCCOC=O [pentyl methanoate] + ClCCCCl
Conditions	excess molar enthalpy, [2] [kcal/mol]	mass density, [1] [kg/m3]
x1 = 0.0471	–	1159.68
x1 = 0.0477	-0.00664	–
x1 = 0.0911	–	1142.71
x1 = 0.1093	-0.0151	–
x1 = 0.1377	–	1125.33
x1 = 0.1729	-0.0245	–
x1 = 0.1848	–	1108.29
x1 = 0.2341	–	1091.1
x1 = 0.2358	-0.0341	–
x1 = 0.2905	-0.0437	–
x1 = 0.3403	–	1056.06
x1 = 0.3427	-0.0529	–
x1 = 0.3933	-0.0605	–
x1 = 0.4528	–	1021.65
x1 = 0.4564	-0.0661	–
x1 = 0.5122	-0.0678	1004.48
x1 = 0.5719	-0.0682	–
x1 = 0.5737	–	987.37
x1 = 0.6379	–	970.23
x1 = 0.6452	-0.0655	–
x1 = 0.7034	–	953.41
x1 = 0.7254	-0.0585	–
x1 = 0.7721	–	936.49
x1 = 0.8109	-0.045	–
x1 = 0.8438	–	919.53
x1 = 0.9161	-0.0244	–
x1 = 0.9188	–	902.44
